As usually defined, the IC50 is the concentration that inhibits the measured activity by half.

We go through 35 compounds from patent publication US9765035B2 (priority 2013, dated 2017).

The test addresses T1, Human CARM1 (PRMT4) (Homo sapiens, UniProt Q86X55).
T1 construct: Flag-CARM1-His; made in house; host or cells: HEK 293F cells (BacMam baculovirus)
T1 sequence (Q86X55 1-585 isoform Q86X55-1): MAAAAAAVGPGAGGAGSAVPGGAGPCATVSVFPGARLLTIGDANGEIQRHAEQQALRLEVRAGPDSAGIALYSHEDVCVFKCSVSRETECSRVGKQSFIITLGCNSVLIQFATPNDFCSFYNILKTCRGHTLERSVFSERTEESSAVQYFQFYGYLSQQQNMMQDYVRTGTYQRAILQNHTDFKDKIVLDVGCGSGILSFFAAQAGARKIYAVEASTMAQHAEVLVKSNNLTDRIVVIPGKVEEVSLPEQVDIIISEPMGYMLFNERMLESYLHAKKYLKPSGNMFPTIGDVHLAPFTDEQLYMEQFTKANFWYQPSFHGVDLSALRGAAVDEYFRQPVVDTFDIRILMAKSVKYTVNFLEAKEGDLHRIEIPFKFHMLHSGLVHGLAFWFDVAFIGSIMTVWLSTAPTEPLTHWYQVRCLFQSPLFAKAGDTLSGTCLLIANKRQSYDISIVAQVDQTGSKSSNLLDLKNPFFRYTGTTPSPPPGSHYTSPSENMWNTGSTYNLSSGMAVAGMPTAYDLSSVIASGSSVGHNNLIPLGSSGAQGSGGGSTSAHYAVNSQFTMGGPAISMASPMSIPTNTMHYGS
Nature of the test: CARM1 Biochemical Assay. From the text: General Materials. S-adenosylmethionine (SAM), S-adenosylhomocysteine (SAH), bicine, Tween20, dimethylsulfoxide (DMSO), bovine skin gelatin (BSG), sodium butyrate and Tris(2-carboxyethyl)phosphine hydrochloride solution (TCEP) were purchased from Sigma-Aldrich at the highest level of purity possible. ^3H-SAM was purchase from American Radiolabeled Chemicals with a specific activity of 80 Ci/mmol. 384-well streptavidin Flashplates were purchased from PerkinElmer.
Substrates. Peptide representative of human histone H3 residues 16-30 was synthesized with an N-terminal linker-affinity tag motif and a C-terminal amide cap by 21st Century Biochemicals. The peptide was purified by high-performance liquid chromatography (HPLC) to greater than 95% purity and confirmed by liquid chromatography mass spectrometry (LC-MS). The sequence was Biot-Ahx-[…]-amide and contained a monomethylated arginine at position 26 (SEQ ID NO.: 14).
Molecular Biology: Human CARM1 (PRMT4) (NM_199141.1) transcript clone was amplified from an HEK 293 cDNA library, incorporating a flanking 5′ sequence encoding a FLAG tag ([…]) (SEQ ID NO.:6) fused directly to Ala 2 of CARM1 and 3′ sequence encoding a hexa His sequence ([…]) (SEQ ID NO.: 15) fused directly to Ser 608. The gene sequence encoding isoform1 containing a deletion of amino acids 539-561 was amplified subsequently and subcloned into pFastBacMam (Viva Biotech).
Protein Expression. Recombinant baculovirus were generated according to Bac-to-Bac kit instructions (Life Technologies). […] Infections were carried out at 37° C. for 48 hours, harvested by centrifugation, and stored at −80° C. for purification.
Protein Purification. […] Column was washed with 500 mM NaCl in buffer A and Flag-CARM1-His was eluted with 200 ug/ml FLAG peptide in buffer A. Pooled fractions were dialyzed in 20 mM Tris, 150 mM NaCl, 5% glycerol and 1 mM DTT, pH 7.8. The purity of recovered protein was 94.
General Procedure for CARM1 Enzyme Assays on Peptide Substrates. The assays were all performed in a buffer consisting of 20 mM Bicine (pH=7.6), 1 mM TCEP, 0.005% BSG, and 0.002% Tween 20, prepared on the day of use. Compounds in 100% DMSO (1 ul) were spotted into a polypropylene 384-well V-bottom plates (Greiner) using a Platemate Plus outfitted with a 384-channel head (Thermo Scientific). DMSO (1 ul) was added to Columns 11, 12, 23, 24, rows A-H for the maximum signal control and 1 ul of SAH, a known product and inhibitor of CARM1, was added to columns 11, 12, 23, 24, rows I-P for the minimum signal control. A cocktail (40 ul) containing the CARM1 enzyme was added by Multidrop Combi (Thermo-Fisher). The compounds were allowed to incubate with CARM1 for 30 min at room temperature, then a cocktail (10 ul) containing ^3H-SAM and peptide was added to initiate the reaction (final volume=51 ul). The final concentrations of the components were as follows: CARM1 was 0.25 nM, ^3H-SAM was 30 nM, peptide was 250 nM, SAH in the minimum signal control wells was 1 mM, and the DMSO concentration was 2%. The assays were stopped by the addition of non-radiolabeled SAM (10 ul) to a final concentration of 300 uM, which dilutes the ^3H-SAM to a level where its incorporation into the peptide substrate is no longer detectable. 50 ul of the reaction in the 384-well polypropylene plate was then transferred to a 384-well Flashplate and the biotinylated peptides were allowed to bind to the streptavidin surface for at least 1 hour before being washed once with 0.1% Tween20 in a Biotek EL×405 plate washer. The plates were then read in a PerkinElmer TopCount plate reader to measure the quantity of ^3H-labeled peptide bound to the Flashplate surface, measured as disintegrations per minute (dpm) or alternatively, referred to as counts per minute (cpm).
Where dpm=disintegrations per minute, cmpd=signal in assay well, and min and max are the respective minimum and maximum signal controls. […]

Where [1] appears, read: PRMT4 IC50, biochemical evaluation, CARM1 (PRMT4), peptide substrate.
Setting [2] is: PRMT4 biochemical evaluation (numerical), single experiment or average of multiple experiments.

On to `CNCCN(C)Cc1n[nH]c2ccc(OC3CCCCC3)cc12` [Compound 18], for which the IC50 under setting [1] was 101 to 1000 nM. For `CNCCN(C)Cc1n[nH]c2ccc(OCc3ccn(C)n3)cc12` [Compound 20], under setting [2], the 50% inhibitory concentration (IC50) is 153 nM.

Under setting [1], `CNCCN(C)Cc1n[nH]c2ccc(Oc3cccc(OC)c3)cc12` [Compound 22] had an IC50 of 101 to 1000 nM. As for `CNCCN(C)Cc1n[nH]c2ccc(OCc3ccc(C(C)=O)cc3)cc12` [Compound 23], the IC50 under setting [1] was 101 to 1000 nM. For `CNCCN(C)Cc1n[nH]c2ccc(Oc3ccccc3OC)cc12` [Compound 24], the IC50 is, setting by setting: under setting [1], less than 100 nM; under setting [2], 115 nM. For `CNCCN(C)Cc1n[nH]c2ccc(OC3CCOC3)cc12` (stereo not shown) [Compound 25, N^1,N^2-dimethyl-N^1-((5-((tetrahydrofuran-3-yl)oxy)-1H-indazol-3-yl)methyl)ethane-1,2-diamine] the same measures were 101 to 1000 nM and 932 nM. The like results for `CNCCN(C)Cc1n[nH]c2ccc(Oc3cccc(C)c3)cc12` [Compound 26] were, in that order, 101 to 1000 nM and 35.1 nM. As to `CNCCN(C)Cc1n[nH]c2ccc(Oc3cccc(Cl)c3)cc12` [Compound 27, N^1-((5-(3-chlorophenoxy)-1H-indazol-3-yl)methyl)-N^1,N^2-dimethylethane-1,2-diamine], the half-inhibitory concentration (IC50) runs as follows: under setting [1], 101 to 1000 nM; under setting [2], 390 nM. As for `CNCCN(C)Cc1n[nH]c2ccc(Oc3cccc(C#N)c3)cc12` [Compound 28], the IC50 is 1010 to 3000 nM under setting [1] and 260 nM under setting [2]. `CNCCN(C)Cc1n[nH]c2ccc(OC3CCOCC3)cc12` [Compound 29, N^1,N^2-dimethyl-N^1-((5-((tetrahydro-2H-pyran-4-yl)oxy)-1H-indazol-3-yl)methyl)ethane-1,2-diamine] gave an IC50 under setting [1] of 101 to 1000 nM and a 50% inhibitory concentration (IC50) under setting [2] of 446 nM. For `CNCCN(C)Cc1n[nH]c2ccc(Oc3ccccc3Cl)cc12` [Compound 30], the IC50 is 101 to 1000 nM under setting [1] and 2340 nM under setting [2].

The compound `CNCCN(C)Cc1n[nH]c2cccc(OCCC(C)C)c12` [Compound 31] had a concentration for half-maximal inhibition (IC50) under setting [2] of 423 nM. Turning to `CNCCN(C)Cc1nn(C)c2ccc(OCc3ccc(C#N)cc3)cc12` [Compound 32], the IC50 by setting is: under setting [1], 101 to 1000 nM; under setting [2], 188 nM. With `CNCCN(C)Cc1c2cc(OCc3ccc(C#N)cc3)ccc2nn1C(C)C` [Compound 34], the half-maximal inhibitory concentration (IC50) under setting [1] lay in the range of 3010 to 10000 nM and the IC50 under setting [2] was determined as 310 nM.

On to `CNCCN(C)Cc1n[nH]c2ccc(OC)cc12` [Compound 35], for which the half-maximal inhibitory concentration (IC50) under setting [1] was 3010 to 10000 nM. Turning to `CNCCN(C)Cc1n[nH]c2ccc(O)cc12` [Compound 36, 3-((methyl(2-(methylamino)ethyl)amino)methyl)-1H-indazol-5-ol], the IC50 runs as follows: under setting [1], 3010 to 10000 nM; under setting [2], 6130 nM. The like results for `CNCCN(C)Cc1n[nH]c2ccc(Oc3ccc(C#N)cc3)cc12` [Compound 37] were, in that order, 1010 to 3000 nM and greater than 10000 nM. In turn, `CNCCN(C)Cc1nn(C2CCN(C(C)=O)CC2)c2ccc(OCc3ccc(C#N)cc3)cc12` [Compound 38] gave a half-inhibitory concentration (IC50) under setting [1] of 1010 to 3000 nM and a 50% inhibitory concentration (IC50) under setting [2] greater than 10000 nM.

Regarding `CNCCN(C)Cc1n[nH]c2ccc(Oc3ccc(C(F)(F)F)cc3)cc12` [Compound 39], the half-inhibitory concentration (IC50) is 101 to 1000 nM under setting [1] and 2880 nM under setting [2]. For `CNCCN(C)Cc1n[nH]c2cccc(OCCC(O)CO)c12` (stereo not shown) [Compound 40], the IC50 by setting is: under setting [1], 3010 to 10000 nM; under setting [2], 2110 nM.

In the case of `CNCCN(C)Cc1n[nH]c2cccc(OCCCC(O)CO)c12` (stereo not shown) [Compound 41, 5-((3-((methyl(2-(methylamino)ethyl)amino)methyl)-1H-indazol-4-yl)oxy)pentane-1,2-diol], the half-inhibitory concentration (IC50) is, setting by setting: under setting [1], 1010 to 3000 nM; under setting [2], 240 nM. Consider `CNCCN(C)Cc1n[nH]c2ccc(C(C)C)cc12` [Compound 42, N^1-((5-isopropyl-1H-indazol-3-yl)methyl)-N^1,N^2-dimethylethane-1,2-diamine], for which the IC50 is, setting by setting: under setting [1], 1010 to 3000 nM; under setting [2], 4050 nM. `CNCCN(C)Cc1n[nH]c2ccc(N3CCC4(CCCCC4)CC3)cc12` [Compound 43, N^1-((5-(3-azaspiro[5.5]undecan-3-yl)-1H-indazol-3-yl)methyl)-N^1,N^2-dimethylethane-1,2-diamine]: the IC50 runs as follows: under setting [1], 101 to 1000 nM; under setting [2], 1780 nM.

Take `CNCCN(C)Cc1n[nH]c2ccc(C3CCOCC3)cc12` [Compound 44, N^1,N^2-dimethyl-N^1-((5-(tetrahydro-2H-pyran-4-yl)-1H-indazol-3-yl)methyl)ethane-1,2-diamine]: the IC50 was 101 to 1000 nM under setting [1] and 1010 nM under setting [2]. On to `CNCCN(C)Cc1n[nH]c2ccc(C3=CCOCC3)cc12` [Compound 45], for which the IC50 was 101 to 1000 nM under setting [1] and 160 nM under setting [2]. With `CNCCN(C)Cc1n[nH]c2ccc(N3CCCCC3)cc12` [Compound 46, N^1,N^2-dimethyl-N^1-((5-(piperidin-1-yl)-1H-indazol-3-yl)methyl)ethane-1,2-diamine], the 50% inhibitory concentration (IC50) is 101 to 1000 nM under setting [1] and 259 nM under setting [2]. For the compound `CNCCN(C)Cc1n[nH]c2ccc(C3CCCCC3)cc12` [Compound 47, N^1-((5-cyclohexyl-1H-indazol-3-yl)methyl)-N^1,N^2-dimethylethane-1,2-diamine], the IC50 was 101 to 1000 nM under setting [1] and 370 nM under setting [2]. The like results for `CNCCN(C)Cc1n[nH]c2ccc(C3=CCCCC3)cc12` [Compound 48] were, in that order, 101 to 1000 nM and 440 nM. Consider `CNCCN(C)Cc1n[nH]c2ccc(Oc3ccccc3C(F)(F)F)cc12` [Compound 49], for which the IC50 was 3010 to 10000 nM under setting [1] and 606 nM under setting [2]. With `CNCCN(C)Cc1n[nH]c2ccc(OCC3CCOCC3)cc12` [Compound 50], the IC50 is, setting by setting: under setting [1], 3010 to 10000 nM; under setting [2], 245 nM. For the compound `CNCCN(C)Cc1n[nH]c2ccc(OCC3CCN(C(C)=O)CC3)cc12` [Compound 51], the IC50 is 3010 to 10000 nM under setting [1] and greater than 10000 nM under setting [2]. Turning to `CNCCN(C)Cc1n[nH]c2ccc(OCC3CCCC3)cc12` [Compound 52], the IC50 under setting [1] is 3010 to 10000 nM and the IC50 under setting [2] is greater than 10000 nM. Consider `CNCCN(C)Cc1c2cc(OCc3ccc(C#N)cc3)ccc2nn1C1CCOCC1` [Compound 53], for which the IC50 was 3010 to 10000 nM under setting [1] and greater than 10000 nM under setting [2]. The like results for `CNCCN(C)Cc1n[nH]c2ccc(OCC3CCCCC3)cc12` [Compound 54] were, in that order, 3010 to 10000 nM and greater than 10000 nM.

Turning to `CNCCN(C)Cc1n[nH]c2ccc(Oc3ccc(C)cc3)cc12` [Compound 55], the IC50 runs as follows: under setting [1], 101 to 1000 nM; under setting [2], greater than 10000 nM.
